Results from the METLIN SMRT retention time set (Domingo-Almenara et al. 2019).

Assay: gradient 5% acetonitrile 3 min, to 50% in 2 min, to 85% in 15 min, held 3 min, 100 µL/min
Details: column: Zorbax Extend-C18 2.1 x 50 mm; eluents: water / acetonitrile, 0.1% formic acid
Summary of the method: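 Pure standards were run in mixtures of ~100 molecules by HPLC coupled to a quadrupole time-of-flight mass spectrometer. The column was a Zorbax Extend-C18 (2.1 × 50 mm, 1.8 μm) at 100 μL/min, with water and acetonitrile each containing 0.1% formic acid, in positive and negative ionization mode. Dead and dwell volumes were 40 μL and 900 μL. Retention time was taken from computationally picked adduct peaks, each manually inspected, with data collected over 3 months.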

Row | Structure (SMILES) | RP-LC retention time
1 | O=C(O)C1CCN(C(=O)Cc2n[nH]c(=O)c3ccccc23)CC1 | 581 s
2 | COc1cc(NC(=O)NCCc2cn(C)c3ncccc23)cc(OC)c1 | 657 s
3 | O=C1CN(S(=O)(=O)c2cccnc2)C2(CCCC2)CN1CC1CC1 | 746 s
4 | CC1CCN(C(=O)c2ccc3c(c2)N(CC(=O)N2CCCC2)C(=O)CO3)CC1 | 703 s
5 | COC(=O)C1=CN(c2cccc(C(F)(F)F)c2)c2ccccc2S1(=O)=O | 900 s
6 | Cc1nc(-c2ccc(S(=O)(=O)N3CCN(c4ccccn4)CC3)cc2)co1 | 640 s
7 | Cc1ccc(NC(=O)N2CCC(C(C)C(=O)Nc3cccc(Cl)c3)CC2)cc1 (stereo not given) | 971 s
8 | O=S(=O)(Nc1cccc(F)c1)c1ccc(-c2nnc(C3CCC3)o2)o1 | 856 s
9 | CCc1c(C(=O)O)nnn1-c1ccccc1F | 690 s
10 | CN1CCCC1c1nc(C2CN(C(=O)CCc3nc4ccccc4s3)C2)no1 (stereo not given) | 607 s
11 | O=C(CSc1ncnc2c1nnn2Cc1ccccc1)Nc1ccc2c(c1)OCCO2 | 830 s
12 | Cc1cc(NC(=O)CSc2nnc(Cc3cccn3C)n2CCc2ccccc2)no1 | 762 s
13 | CCOC(=O)C1CCN(C(=O)c2ccc3ccnc(N4CCN(c5ccc(F)cc5)CC4)c3c2)CC1 | 814 s
14 | CCn1cnc(S(=O)(=O)N2CCC(C(=O)Nc3ccccc3)CC2)c1 | 701 s
15 | Cc1cc2nn(CC(=O)Nc3ccc(F)c(F)c3)c(=O)n2c(Nc2ccccc2)n1 | 967 s
16 | Cc1ccccc1S(=O)(=O)N1CC[C@@H]2CN(Cc3cccnc3)[C@@H]2C1 | 598 s
17 | COc1ccc(Cc2nc3nccc(-c4ccco4)n3n2)cc1 | 855 s
18 | O=C(c1cccs1)N1CCCC1c1nc(-c2ccccc2)no1 (stereo not given) | 946 s
19 | Cc1ccccc1CN1CC(=O)N(c2ccccc2)[C@@H]2CS(=O)(=O)C[C@@H]21 | 800 s
20 | Cc1cc(C)c(S(=O)(=O)N2CC(F)(F)C[C@H]2COc2cccnc2)c(C)c1 | 834 s
21 | O=C(Cn1nc2c(cc1=O)CCCC2)Nc1nc(-c2ccc3c(c2)OCO3)cs1 | 851 s
22 | CN1C(=O)CCc2cc(NC(=O)C3CCCCC3)ccc21 | 752 s
23 | COc1ccc(NC(=O)N2CCC(n3c(C(F)(F)F)nc4cccnc43)CC2)c(OC)c1 | 768 s

Row | Structure (SMILES) | RP-LC retention time
24 | O=C(CCCN1C(=O)C(c2ccccc2)Oc2cccnc21)NCCCN1CCCCC1 (stereo not given) | 573 s
25 | CCCNC(=O)C1CCN(c2nc3ccc(-c4cncnc4)nc3s2)CC1 | 719 s
26 | COc1ccc(-c2nc3cc(C)ccn3c2Nc2ccccc2C)cc1 | 743 s
27 | CCOC(=O)c1c(C)[nH]c(C(=O)N2CCC(C(C)C(=O)NCc3ccc(N(C)C)cc3)CC2)c1C (stereo not given) | 635 s
28 | COc1cccc(CN2CC=C(C(=O)N3CCN(c4ccccc4OC)CC3)CC2)c1 | 651 s
29 | Cc1nc(-c2ccc(Cl)cc2)sc1C(=O)N1CCN(c2ncccn2)CC1 | 961 s
30 | O=C(CC1CCN(C(=O)c2ccccc2)CC1)N1CCN(c2ccccn2)CC1 | 582 s
31 | Cc1noc(C)c1S(=O)(=O)NCCc1noc(-c2ccccc2)n1 | 848 s
32 | CCn1cnc2ccc(-c3noc(-c4cccc(Cl)c4)n3)cc21 | 861 s
33 | O=C(Nc1ccc(N2CCN(Cc3ccc(F)cc3)C2=O)nc1)C1CCC1 | 750 s
34 | CC(=O)Nc1ccc(S(=O)(=O)N2CCC(C(=O)N3CCN(c4ncccn4)CC3)CC2)cc1 | 666 s
35 | CCOc1ccccc1NC(=O)Cn1nc2c(N3CCSCC3)nccn2c1=O | 853 s
36 | O=C(CN1C(=O)C(C(=O)N2CCCC2)Sc2ccccc21)N1CCN(c2ccccc2)CC1 (stereo not given) | 842 s
37 | OC1(c2ccccn2)CCOC2(CCN(Cc3ccc(Cl)c(F)c3)CC2)C1 (stereo not given) | 591 s
38 | COc1ccccc1Cc1noc(C2CN(C(=O)CCc3c(C)noc3C)C2)n1 | 738 s
39 | CCOC(=O)c1[nH]c(C)c(C(=O)C(C)N(C(=O)c2cccc(F)c2)C(C)C)c1C (stereo not given) | 883 s
40 | Cc1ccc(C)c(NC(=O)CN2C(=O)CCc3cc(S(=O)(=O)N4CCCCC4C)ccc32)c1 (stereo not given) | 983 s
41 | O=C(Cc1noc2ccccc12)NCc1cc(-c2ccc(F)cc2F)on1 | 818 s
42 | CCC(=O)Nc1ccc(S(=O)(=O)NC2CCN(c3ccc(=O)n(CC4CC4)n3)C2)cc1 (stereo not given) | 712 s
43 | CCn1cc(-c2ccc(Cl)cc2)cc1C(=O)NCC1CCCO1 (stereo not given) | 1010 s
44 | Cc1cc2c(cc1NC(=O)C1CCC(C)CC1)n(C)c(=O)c(=O)n2C (stereo not given) | 733 s
45 | CCc1cccc(NS(=O)(=O)c2cc(-c3c(CC)noc3NC(C)=O)ccc2C)c1 | 900 s
